# Measurements reported in PubChem BioAssay (NCI).
# Several values for one entry are separate records, joined by “and”; a condition that tells them apart may be missing. Identical values can stand only once.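 Values below derive from 48-hour exposures of cells grown in 96-well plates, with endpoints linearly interpolated between the two concentrations bracketing the appropriate inhibition level. GI50 = concentration required for 50% inhibition of growth. TGI marks complete inhibition of growth.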
# How the values were obtained:
# Test in all cases: NCI anticancer screen, dose series, 48 h
# A498 renal = tested on: A498 renal
# A549 NSCLC = tested on: A549 NSCLC
# CAKI-1 renal = tested on: CAKI-1 renal
# MCF7 breast = tested on: MCF7 breast
# OVCAR-5 ovarian = tested on: OVCAR-5 ovarian
# RXF 393 renal = tested on: RXF 393 renal
# SK-MEL-28 melanoma = tested on: SK-MEL-28 melanoma
# SN12C renal = tested on: SN12C renal
# TK-10 renal = tested on: TK-10 renal
# U251 CNS = tested on: U251 CNS
SMILES,GI50 (A498 renal) [µM],TGI (A498 renal),GI50 (A549 NSCLC) [µM],TGI (A549 NSCLC),GI50 (CAKI-1 renal) [µM],TGI (CAKI-1 renal),GI50 (MCF7 breast) [µM],TGI (MCF7 breast) [µM],GI50 (OVCAR-5 ovarian),TGI (OVCAR-5 ovarian),GI50 (RXF 393 renal) [µM],TGI (RXF 393 renal),GI50 (SK-MEL-28 melanoma) [µM],TGI (SK-MEL-28 melanoma) [µM],GI50 (SN12C renal) [µM],TGI (SN12C renal),GI50 (TK-10 renal) [µM],TGI (TK-10 renal),GI50 (U251 CNS) [µM],TGI (U251 CNS)
O=C1/C(=C/c2ccc(Cl)c(Cl)c2)CN(C(=O)C(Cl)Cl)C/C1=C\c1ccc(Cl)c(Cl)c1,0.216,0.664 µM,0.22,0.908 µM,0.244,0.826 µM,0.037,1.37,0.204 µM,0.545 µM,0.164,0.337 µM,0.252,0.634,0.139,0.461 µM,0.353,1.23 µM,0.0371,0.153 µM
COc1cc(CNCCCCCCN2C(=O)c3cccc4cccc(c34)C2=O)ccc1O,0.735,21 µM,5.56,19.4 µM,8.44,26.9 µM,1.74,3.45,14.1 µM,29 µM,2,9.19 µM,2.06,4.31,10.1,22 µM,10.1,24.8 µM,4.51,17.3 µM
CCCCN(CCCC)C(=O)[C@H](CC)[C@@H]1CC[C@@H](C)[C@@H]([C@H](C)[C@@H](O)[C@@H](C)C(=O)[C@H](CC)C2O[C@]3(C=C[C@@H](O)[C@]4(CC[C@@](C)([C@H]5CC[C@](O)(CC)[C@H](C)O5)O4)O3)[C@H](C)C[C@@H]2C)O1 (stereo not given in full),1.99,6.24 µM,3.12,34.4 µM,1.91,9.02 µM,2.4,7.77,1.9 µM,4.78 µM,1.59,3.37 µM,4.21,81.1,2.13,7.34 µM,3.57,> 100 µM,2.78,10.3 µM
CCN(CC)c1ccc(/C=C/C(=O)c2ccc(Nc3nc(Nc4ccccc4)nc(Nc4ccccc4)n3)cc2)cc1,7.44,48 µM,12.8,78.1 µM,5.17,38 µM,1.99,21.8,17.5 µM,> 100 µM,2.97,16.8 µM,19.8,> 100,> 100,> 100 µM,2.39,19.8 µM,4.82,> 100 µM
O=C1Nc2ccc(Cl)cc2/C1=C\c1c(-c2ccc(Cl)cc2)nc2sc(C3CC3)nn12,1.05,6.42 µM,3.58,13.9 µM,1.43,11.1 µM,4.1,16.6,11.7 µM,42.6 µM,1.91,5.09 µM,3.49,13.7,3.54,14.2 µM,3.1,7.97 µM,3.29,13.1 µM
C[C@@]1([C@H](OC(=O)c2ccccc2)C(N)=O)CO1,33.8,88.3 µM,24,61.4 µM,10.7,31.5 µM,32,> 100,34.1 µM,85.9 µM,18,43.5 µM,20.6,53.2,13.7,33.9 µM,19.8,73.7 µM,17.1,37.5 µM
Cn1cc(/C=C\[N+](=O)[O-])c2ccccc21,3.36,7.39 µM,46.4,> 100 µM,66.8,> 100 µM,21,80.6,> 100 µM,> 100 µM,17.6,32.3 µM,23.3,50.3,> 100,> 100 µM,78.3,> 100 µM,36.5,> 100 µM
CC1CC2C3CCC4=CC(=O)C=CC4(C)C3(F)C(O)CC2(C)C1(O)C(=O)COP(=O)(O)O (stereo not given),> 500,> 500 µM,> 500,> 500 µM,> 500,> 500 µM,> 500,> 500,> 500 µM,> 500 µM,> 500,> 500 µM,> 500,> 500,> 500,> 500 µM,> 500,> 500 µM,> 500,> 500 µM
NS(=O)(=O)c1ccc(Nc2cc(-c3ccc(O)c(F)c3)[nH]n2)cc1,> 25,> 25 µM,> 25,> 25 µM,> 25,> 25 µM,> 25,> 25,> 25 µM,> 25 µM,> 25,> 25 µM,> 25,> 25,> 25,> 25 µM,> 25,> 25 µM,16.4,> 25 µM
CO[C@H]1C[C@@H]2CC[C@@H](C)[C@@](O)(O2)C(=O)C(=O)N2CCCC[C@H]2C(=O)O[C@H]([C@H](C)C[C@@H]2CC[C@@H](OC(=O)C(C)(CO)CO)[C@H](OC)C2)CC(=O)[C@H](C)/C=C(\C)[C@@H](O)[C@@H](OC)C(=O)[C@H](C)C[C@H](C)\C=C/C=C/C=C/1C,0.00187,,0.067,> 10 µM,0.0352,> 10 µM,0.00422,> 10,> 6.89 µM,> 10 µM,< 0.001,> 10 µM,0.0219,> 10,> 10,> 10 µM,,> 10 µM,,> 10 µM
C#Cc1cccc(Nc2ncnc3cc(NC(=O)CCl)ccc23)c1,2.77,7.28 µM,3.59,7.93 µM,1.78,6.06 µM,0.961,4.73,1.12 µM,5.63 µM,4.03,7.78 µM,3.67,7.34,1.29,4.81 µM,1.86,5.98 µM,0.789,2.92 µM
CSC1=NC(=Nc2c(C)cccc2C)C2(CCC(C(C)(C)C)CC2)N1c1ccc(Cl)cc1 (stereo not given),> 100,> 100 µM,,,6.59,> 100 µM,26.5,> 100,> 100 µM,> 100 µM,52.4,> 100 µM,99.6,> 100,40.8,> 100 µM,39.8,> 100 µM,8.04,> 100 µM
COC(=O)NC1C(C)OC(OC2C/C=C(/C)C3C=CC4C(OC5CC(OC6CCC(OC7CC(O)C(OC8CCC(O)C(C)O8)C(C)O7)C(C)O6)C(OC(C)=O)C(C)O5)C(C)CC(C)C4C3(C)/C(O)=C3/C(=O)OC4(CC(C=O)=CC(O)C4/C=C\2C)C3=O)CC1(C)[N+](=O)[O-] (stereo not given),0.199,1.65 µM and 0.508 µM,0.48,8.73 µM and 2.5 µM,1.05,7.08 µM and 3.27 µM,,4.01,1.14 µM,4.71 µM and 2.55 µM,0.158,1.27 µM and 0.334 µM,0.0311,,0.27,3.32 µM and 0.891 µM,0.418,6.2 µM and 1.14 µM,0.179,0.901 µM and 0.499 µM
CN(C)c1ccc(/C=C\c2ccnc3ccccc23)cc1,7.57,> 26.7 µM,5.83,> 100 µM,10.2,> 100 µM,0.328,10.9,12.7 µM,> 100 µM,3.2,> 79.6 µM,21.7,> 80.5,8.81,> 74.1 µM,14.7,> 100 µM,9.43,> 100 µM
Cc1cc(=O)oc2ccc(OC/C=C3\CCC(=O)O3)cc12,12.3,50.6 µM,17,33 µM,2.72,14.8 µM,2.36,13.3,14.8 µM,31.2 µM,5.85,21.3 µM,11.3,23.5,13.5,31.4 µM,1.61,9.23 µM,12.2,24.6 µM
Oc1ccc(Cl)cc1C(c1cc(Cl)ccc1O)C(Cl)(Cl)Cl,1.67,3.53 µM,2.68,8.25 µM,1.97,6.06 µM,2.42,6.65,1.66 µM,3.68 µM,1.95,4.16 µM,1.8,4.02,1.67,3.28 µM,2.27,5.01 µM,1.71,3.45 µM
COc1ccc2nc3cc(Cl)ccc3c(NCCCNCCO)c2c1,0.197,1.5 µM,0.378,2.06 µM,0.816,3.55 µM,0.355,2.06,0.531 µM,3.28 µM,0.58,2.22 µM,1.38,3.06,0.371,2.48 µM,0.587,3.2 µM,0.455,2.12 µM
COc1cc2c(c(OC)c1OC)-c1ccc(NN(C(=O)c3ccccc3)C(=O)c3ccccc3)c(=O)cc1[C@@H](NC(C)=O)CC2 (tested in a mixture with another compound),3.78,52 µM,4.02,> 100 µM,4.62,47.1 µM,3.84,> 100,3.95 µM,> 100 µM,2.24,8 µM,8.76,29,5.38,> 100 µM,4.04,42.5 µM,3.77,21.3 µM
COc1cc(/C=C/C(=O)c2cccc(-n3cc(-c4cc(OC)c(OC)c(OC)c4)[nH]c3=O)c2)cc(OC)c1OC,20.3,> 100 µM,3.03,18.5 µM,2.89,9.91 µM,0.479,2.44,4.38 µM,13.4 µM,1.62,3.41 µM,1.61,3.39,2.75,18.2 µM,3,6.68 µM,1.23,3.71 µM
C=C1C[C@H]2C=Nc3cc(OCCCOc4cc5c(cc4OC)C(=O)N4CC(=C)C[C@H]4C=N5)c(OC)cc3C(=O)N2C1,,0.0578 µM,0.0135,> 100 µM,0.0113,,,41.3,0.0197 µM and < 0.0205 µM,,,< 0.0292 µM,,0.0436,0.00151,,,< 0.177 µM,,3.3 µM
COc1ccc2c(c1)OC(N)=C(C#N)C2c1cc(OC)c(OC)c(OC)c1 (stereo not given),0.0222,0.148 µM,0.0401,> 100 µM,0.107,> 100 µM,0.0361,> 100,0.059 µM,> 100 µM,0.0344,73.6 µM,0.0781,> 100,0.0494,> 100 µM,,,0.0329,1.48 µM
CN1CCN(CC(=O)N(C)c2ccc(N=C(c3ccccc3)c3c(O)[nH]c4ccc(C#N)cc34)cc2)CC1,0.176,2.46 µM,3.13,21.2 µM,1.26,8.96 µM,0.451,13.7,7.11 µM,19.2 µM,1.39,3.38 µM,2.21,4.62,1.56,11.4 µM,10.5,24.5 µM,2.14,6.88 µM
O=C1Nc2ccc(Br)cc2C12CC(c1ccccc1)=NN2 (stereo not given),2.24,8.38 µM,4.53,> 100 µM,2.8,16.6 µM,2.48,64.5,16.7 µM,> 100 µM,2.14,6.05 µM,7.48,> 100,6.8,51.2 µM,,,3.84,19.2 µM
